Source: patent US20140107151A1, “TYROSINE KINASE INHIBITORS” (Principal Biopharma Inc., priority 2011, published 2014)

molecular target: human recombinant Btk (Homo sapiens, UniProt Q06187); assay: Btk Enzymatic Activity Assay (Caliper-based kinase assay); assay type: biochemical; details: human recombinant Btk 2 nM, ATP 40 μM, peptide substrate 1 μM, room temperature for 3 h
Sequence (Q06187 whole entry): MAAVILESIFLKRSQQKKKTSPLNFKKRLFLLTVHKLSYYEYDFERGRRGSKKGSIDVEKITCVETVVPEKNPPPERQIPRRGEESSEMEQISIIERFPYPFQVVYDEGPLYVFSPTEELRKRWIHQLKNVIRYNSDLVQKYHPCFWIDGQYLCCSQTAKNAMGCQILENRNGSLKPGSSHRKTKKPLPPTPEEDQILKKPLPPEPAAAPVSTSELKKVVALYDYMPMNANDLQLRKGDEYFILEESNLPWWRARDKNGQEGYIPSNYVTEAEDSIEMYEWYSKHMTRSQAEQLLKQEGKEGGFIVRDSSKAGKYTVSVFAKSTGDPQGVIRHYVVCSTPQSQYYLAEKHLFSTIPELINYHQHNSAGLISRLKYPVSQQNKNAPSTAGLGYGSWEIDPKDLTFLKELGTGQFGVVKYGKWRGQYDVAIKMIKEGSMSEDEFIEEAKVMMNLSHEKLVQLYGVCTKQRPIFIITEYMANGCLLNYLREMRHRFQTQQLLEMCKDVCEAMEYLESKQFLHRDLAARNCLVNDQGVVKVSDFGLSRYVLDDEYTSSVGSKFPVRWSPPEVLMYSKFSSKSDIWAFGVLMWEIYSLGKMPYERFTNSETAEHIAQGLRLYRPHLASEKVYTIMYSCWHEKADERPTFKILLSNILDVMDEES
Procedure: A Caliper-based kinase assay (Caliper Life Sciences, Hopkinton, Mass.) was used to measure inhibition of Btk kinase activity of a compound of Formula (I). […] The reaction was then terminated with EDTA, final concentration 20 mM and the phosphorylated reaction product was quantified on a Caliper Desktop Profiler (Caliper LabChip 3000).

Row | Compound | IC50 [nM]
1 | N#CC(=CC1CC1)C(=O)N1CCC(c2cc3[nH]nc(N)c3c(-c3ccc(Oc4ccccc4)cc3)n2)CC1 [Example 8, 2-(4-(3-amino-4-(4-phenoxyphenyl)-1H-pyrazolo[4,3-c]pyridin-6-yl)piperidine-1-carbonyl)-3-cyclopropylacrylonitrile] | 2
2 | N#CC(=CC1CC1)C(=O)N1CCCC(c2cc3[nH]nc(N)c3c(-c3ccc(Oc4ccccc4)cc3)n2)C1 (centres unmarked) [Example 9, 2-(3-(3-amino-4-(4-phenoxyphenyl)-1H-pyrazolo[4,3-c]pyridin-6-yl)piperidine-1-carbonyl)-3-cyclopropylacrylonitrile] | 1.1
3 | N#CC(=CC1CC1)C(=O)N1CCCC1Cc1cc2[nH]nc(N)c2c(-c2ccc(Oc3ccccc3)cc2)n1 (centres unmarked) [Example 10, 2-(2-((3-amino-4-(4-phenoxyphenyl)-1H-pyrazolo[4,3-c]pyridin-6-yl)-methyl)pyrrolidine-1-carbonyl)-3-cyclopropylacrylonitrile] | 2
4 | CC(C)C=C(C#N)C(=O)N1CCC(Cc2cc3[nH]nc(N)c3c(-c3ccc(Oc4ccccc4)cc3)n2)C1 (centres unmarked) [Example 10A, 2-(3-((3-amino-4-(4-phenoxyphenyl)-1H-pyrazolo[4,3-c]pyridin-6-yl)methyl)-pyrrolidine-1-carbonyl)-4-methylpent-2-enenitrile] | 1.2
5 | CC(C)C=C(C#N)C(=O)N1CCC[C@@H](c2cc3[nH]nc(N)c3c(-c3ccc(Oc4ccccc4)cc3)n2)C1 [Example 11, (R)-2-(3-(3-amino-4-(4-phenoxyphenyl)-1H-pyrazolo[4,3-c]pyridin-6-yl)piperidine-1-carbonyl)-4-methylpent-2-enenitrile] | 9.3
6 | CC(C)C=C(C#N)C(=O)N1CCC[C@H](c2cc3[nH]nc(N)c3c(-c3ccc(Oc4ccccc4)cc3)n2)C1 [Example 11A, (S)-2-(3-(3-amino-4-(4-phenoxyphenyl)-1H-pyrazolo[4,3-c]pyridin-6-yl)piperidine-1-carbonyl)-4-methylpent-2-enenitrile] | 15.5
7 | CC(C)C=C(C#N)C(=O)N1CCC[C@H]1c1cc2[nH]nc(N)c2c(-c2ccc(Oc3ccccc3)cc2)n1 [Example 11B, (S)-2-(2-(3-amino-4-(4-phenoxyphenyl)-1H-pyrazolo[4,3-c]pyridin-6-yl)pyrrolidine-1-carbonyl)-4-methylpent-2-enenitrile] | 13
8 | CC(C)C=C(C#N)C(=O)N1CCC[C@@H]1c1cc2[nH]nc(N)c2c(-c2ccc(Oc3ccccc3)cc2)n1 [Example 11C, (R)-2-(2-(3-amino-4-(4-phenoxyphenyl)-1H-pyrazolo[4,3-c]pyridin-6-yl)pyrrolidine-1-carbonyl)-4-methylpent-2-enenitrile] | 13.6
